Measured values as given in the NIST ThermoML archive (doi:10.1021/acs.jced.8b00487).
Where “and” joins values, the source holds several entries; their conditions need not be identical. Equal values may be shown once. Numbers after ± are expanded uncertainties.

Conditions: 298.15 K, Liquid, Vibrating tube method

## CCCCC(CC)COP(=O)(O)OCC(CC)CCCC (configuration not stated) [bis(2-ethylhexyl) hydrogen phosphate]
101 kPa
  mass density: 971 ± 2 kg/m3 and 970.5 ± 2 kg/m3
101.33 kPa
  mass density: 969.1 ± 0.6 kg/m3
